System: C3H10T1/2 mouse embryonic fibroblast cells
Assay: Fibroblast-to-myoblast conversion assay
Type: cell-based
Description: FIGS. 4A-4H depict targeted demethylation of the MyoD distal enhancer by dCas9-Tet1 to facilitate conversion of fibroblasts to myoblasts. FIG. 4A provides a schematic representation of targeting the MyoD distal enhancer (DE) region in DMR-5 by dCas9-Tet1 (dC-T) with specific gRNAs. […] Cherry positive cells were FACS sorted for RT-qPCR analysis. Bars represent mean±SD of three experimental replicates. FIG. 4C bisulfite sequencing of cells in FIG. 4B. […] Shown is the mean percentage±SD of two biological replicates. […] C3H10T1/2 cells were plated as 1×10^4 cells per well in 6-well plate, and then infected with lentiviruses expressing dC-T and gRNAs targeting DMR-5, or a catalytic dead form of Tet1 (dC-dT) with target gRNAs. 24-hour post infection, cells were treated with vehicle control (HEPES buffer) or 5-Azacytidine (1 uM) for 24-hour, and then harvested after 14 days for immunofluorescence staining. Stained in green for MyoD, magenta for MHC and blue for DAPI. Scale bar: 200 um. FIG. 4F provides quantification of MyoD positive cell ratio 14-day post infection with lentiviruses expressing dC-T alone, dC-T with gRNAs targeting DMR-5, and dC-dT with the target gRNAs. […] FIG. 4H provides quantification of myotube density in MHC positive clusters with more than 2 or 5 nuclei at 14-days after infection. […] Data are quantified from 3-5 representative images for F-H. Bars represent mean±SD.
FIGS. 12A-12J depict targeted demethylation of the MyoD DMR-5 by dCas9-Tet1 and conversion of fibroblasts to myoblasts. […] PAM for each sgRNA is highlighted by a red box. FIG. 12B provides experimental scheme of the fibroblast-to-myoblast conversion assay. Briefly, C3H10T1/2 mouse embryonic fibroblast cells were plated as 1×10^4 cells per well in 6-well plate, and then infected with lentiviruses expressing dCas9-Tet1 and target gRNAs. 24-hour post infection, cells were optionally treated with 5-Azacytidine (1 uM) for 24-hour (labeled in red), and harvested for immunofluorescence staining at different time points (day-14, -16 and -25, labeled in dark blue) with medium change every other day. Scale bar: 100 um. […] Stained in green for MHC, red for MyoD and blue for DAPI. Scale bar: 200 um. FIG. 12D depicts a fraction of mock C3H10T1/2 cells expressing MyoD at different times after 5-Aza treatment. The fraction of cells expressing MyoD increases from around 6% at day 14 to around 13% at day 16 and reached around 20% at day 25. Bars represent mean±SD. FIG. 12E provides number of nuclei in MHC+ cell clusters (grouped as 1-2 and >2 nuclei per MHC+ cluster). […] Bars represent mean±SD. Data was quantified from 3-5 representative images for each group in FIG. 12D and FIG. 12E. […] Bars represent mean±SD of three experimental replicates. FIG. 12G provides representative images for C3H10T1/2 cells 16 days after infection with lentiviruses expressing dC-T and gRNAs targeting DMR-5 (MyoD distal enhancer) in a fibroblast-to-myoblast conversion assay as described in FIG. 12B. […] Stained in magenta for MHC, green for MyoD and blue for DAPI. Scale bar: 200 um. FIG. 12H depicts a fraction of MyoD positive cells 16 days after infection with lentiviruses expressing dC-T alone or with gRNAs targeting DMR-5. FIG. 12I show a number of nuclei in MHC+ cell clusters (grouped as 2-5, 6-10, 11-20 and >20 nuclei per MHC+ cluster) 16 days after infection. […] Data are quantified from 3-5 representative images for FIGS. 12H-12J. Bars represent mean±SD.
We then investigated whether targeted demethylation of DMR-5 would synergize with 5-Aza treatment to induce myotube formation (FIG. 12B). To follow the process of myotube formation after 5-Aza treatment, a time-course experiment was performed. Multi-nucleated myotube (MHC-positive) with heterogeneous sizes began to form 14 days post treatment, and both MyoD-positive cell ratio and myotube density and size then increased up to day-25 (FIGS. 12C-12E). […]

Question: How did the “MyoD expression level (immunofluorescence)” value (with gRNAs targeting DMR-5, 14 days, absence of 5-Aza) turn out when “dCas9-Tet1: catalytically inactive Cas9 (dCas9) fused through NLS to the Tet1 catalytic domain, SEQ ID NO: 159; lentivirally expressed with gRNAs” was run?
Answer: moderate expression level of MyoD

Question: What about the myotube formation (with gRNAs targeting DMR-5, 14 days, absence of 5-Aza treatment) of the same substance?
Answer: not sufficient to induce myotube formation

Question: And the “myotube formation (MHC+ clusters, >2 nuclei per cluster)” value (with gRNAs targeting MyoD DMR-5 plus 5-Aza, 14 days post-treatment, versus dCas9-Tet1 only or dC-dT)?
Answer: facilitated the myotube formation
